Source: PubChem BioAssay AID2060623 (Molecular Pharmacology Branch, DTP, NCI, 2025)

Tested on: 227483-062-R1-J1-PDC complex spheroids with HUVEC/MSC, viability
Assay: Anticancer human tumor 227483-062-R1-J1-PDC patient-derived pancreatic carcinoma cell line growth inhibition [CLK]
Details: for IC50: curve of first compound; for viability, T/C: stronger effect = lower value
Excerpt: A high-throughput screen of multi-cell type tumor spheroids was designed to identify active combinations of […] and targeted small molecules. Complex spheroids include a stromal component modeled by human endothelial cells (HUVEC) and fibroblasts modeled by human mesenchymal stem cells (MSCs). The concentration ranges selected for each drug and investigational agent were based upon clinically achievable concentrations if the clinical Cmax of the agent was known.
Compounds. The drugs and investigational agents: cirtuvivint (SM08502; NSC835563), CC-671 (NSC850746), vemurafenib (NSC761431), tapotoclax (NSC804041), sotorasib (NSC818433), adagrasib (NSC831453), MRTX-1133 (NSC836407), BAY2416964 (NSC825713), copanlisib (NSC816437), inavolisib (NSC800729), abemaciclib (NSC768073), osimertinib (NSC779217), entinostat (NSC756642), eltanexor (KPT-8602, NSC794443), venetoclax (NSC766270), ceralasertib (NSC777638), bortezomib (NSC756655), olaparib (NSC753686), talazoparib (NSC767125), alisertib (NSC759677), peposertib (NSC802822), gemcitabine (NSC613327), 5-fluorouracil (NSC19893), SN-38 (NSC673596), oxaliplatin (NSC266046), paclitaxel (NSC125973), and doxorubicin (NSC123127), were obtained from the National Cancer Institute (NCI) Developmental Therapeutics Program Chemical Repository. The FDA-approved anticancer drug set is available from the Developmental Therapeutics Program at https://dtp.cancer.gov/organization/dscb/obtaining/available plates.htm. […] The stock solutions were prepared in dimethyl sulfoxide (DMSO, Sigma-Aldrich, St. Louis, MO, cat. D2650), except for the platinum complexes which were prepared in saline (Quality Biological, Gaithersburg, MD, cat. 114-055-101), at 800-fold the tested concentration and stored at -70 degrees C prior to their use. All drugs and investigational agents were tested over a range starting from a high concentration at or near the clinical Cmax and decreasing in half-log increments. If the clinical Cmax for an agent had not been determined, the highest concentration tested was 10 microM.
Cell Culture. All cells were maintained in an incubator at 37 degrees C and 5% CO2 with 95% humidity. The PDC lines were cultured according to standard operating procedures established by the NCI PDMR. Briefly, all PDCs were thawed and cultured in Matrigel-coated flasks prepared with a working solution of 1X Ham's F-12 nutrient mix, without supplementation (Invitrogen, Waltham, MA, cat. 11765054), 100 U/mL penicillin-streptomycin (Invitrogen, cat. 15140122), and 2.5% Matrigel (Corning Inc., Corning, NY, cat. 354248) for the first three passages. The 947758-054-R-J2-PDC line was cultured in 6B/Colon 1A media, which includes advanced DMEM/F-12 (Thermo Fisher Scientific, cat. 12634028), 10 mM HEPES (Thermo Fisher Scientific, cat. 15630080), 1X GlutaMAX supplement (Thermo Fisher Scientific, cat. 35050061), 0.1 mg/mL primocin (InvivoGen, cat. ant-pm-2), 10% defined fetal bovine serum, heat inactivated (HyClone Laboratories Inc., cat. SH30070.03HI), 1.25 mM N-Acetyl-L-cysteine (Sigma-Aldrich, cat. A9165), 10 mM nicotinamide (Sigma-Aldrich, cat. N0636), 1X B-27 supplement (Thermo Fisher Scientific, cat. 17504044), 1X N-2 supplement (Thermo Fisher Scientific, cat. 17502048), and 10 microM Y-27632 dihydrochloride (Tocris Bioscience, cat. 1254). The 876862-298-R-J1-PDC was cultured in 6E media, which includes all 6B/Colon 1A media components plus 50% L-WRN conditioned media (ATCC, cat. CRL-3276), 50 ng/mL recombinant human EGF recombinant protein (hEGF; Thermo Fisher Scientific, cat. PHG0311), 10 ng/mL recombinant human fibroblast growth factor 10 (hGFG-10; PeproTech, cat. 100-26), 1 ng/mL recombinant human fibroblast growth factor 2 (hFGF-2; PeproTech, cat. 100-18B), and 1 µM prostaglandin E2 (PGE2; Tocris, cat. 2296). The 227483-062-R1-J1-PDC line was cultured in Panc media, containing all 6E components except hFGF-2, with the addition of 500 nM SB-431542 (Selleckchem, cat. S1067) and 10 nM gastrin (Tocris, cat. 3006). […]

[1] = second compound 0.0316 µM, first compound 0.0316 µM
[2] = second compound 0.0316 µM, first compound 0.1 µM
[3] = second compound 0.0316 µM, first compound 0.316 µM
[4] = second compound 0.0316 µM, first compound 1 µM
[5] = second compound 0.0316 µM, first compound 3.16 µM
[6] = second compound 0.0316 µM, first compound 10 µM
[7] = second compound 0.1 µM, first compound 0.0316 µM
[8] = second compound 0.1 µM, first compound 0.1 µM
[9] = second compound 0.1 µM, first compound 0.316 µM
[10] = second compound 0.1 µM, first compound 1 µM
[11] = second compound 0.1 µM, first compound 3.16 µM
[12] = second compound 0.1 µM, first compound 10 µM
[13] = second compound 0.316 µM, first compound 0.0316 µM
[14] = second compound 0.316 µM, first compound 0.1 µM
[15] = second compound 0.316 µM, first compound 0.316 µM
[16] = second compound 0.316 µM, first compound 1 µM
[17] = second compound 0.316 µM, first compound 3.16 µM
[18] = second compound 0.316 µM, first compound 10 µM
[19] = second compound 1 µM, first compound 0.0316 µM
[20] = second compound 1 µM, first compound 0.1 µM
[21] = second compound 1 µM, first compound 0.316 µM
[22] = second compound 1 µM, first compound 1 µM
[23] = second compound 1 µM, first compound 3.16 µM
[24] = second compound 1 µM, first compound 10 µM
[25] = second compound 3.16 µM, first compound 0.0316 µM
[26] = second compound 3.16 µM, first compound 0.1 µM
[27] = second compound 3.16 µM, first compound 0.316 µM
[28] = second compound 3.16 µM, first compound 1 µM
[29] = second compound 3.16 µM, first compound 3.16 µM
[30] = second compound 3.16 µM, first compound 10 µM
[31] = second compound 10 µM, first compound 0.0316 µM
[32] = second compound 10 µM, first compound 0.1 µM
[33] = second compound 10 µM, first compound 0.316 µM
[34] = second compound 10 µM, first compound 1 µM
[35] = second compound 10 µM, first compound 3.16 µM
[36] = second compound 10 µM, first compound 10 µM
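Note: spheroids exposed to compounds for seven days before readout.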
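Throughout, for viability, T/C: percent of DMSO vehicle control luminescence as 100% viability.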

For `C=C(F)C(=O)N1CCN(c2nc(OCC3CCCN3C)nc3c2CCN(c2cccc4cccc(Cl)c24)C3)CC1CC#N` (centres undefined) + CN1CCN(c2cc(C(=O)Nc3cc4cc(-c5cnn(C)c5)ccc4cn3)ccn2)CC1, the IC50 (second compound 0.0316 µM) was 6190 nM, the IC50 (second compound 0.1 µM) was 4890 nM and the IC50 (second compound 0.316 µM) was < 31.6 nM. The IC50 (second compound 1 µM) was < 31.6 nM, the IC50 (second compound 3.16 µM) was < 31.6 nM and the IC50 (second compound 10 µM) was < 31.6 nM. It also gave a viability, T/C [1] of 87.7%, a viability, T/C [2] of 104% and a viability, T/C [3] of 102%. For the same molecule, the viability, T/C [4] was 86.8%, the viability, T/C [5] was 89.8% and the viability, T/C [6] was 21.3%. It also gave a viability, T/C [7] of 67.6%, a viability, T/C [8] of 73.8% and a viability, T/C [9] of 68%. It also gave a viability, T/C [10] of 78.8%, a viability, T/C [11] of 78.2% and a viability, T/C [12] of 11.8%. The viability, T/C [13] was 5.59%, the viability, T/C [14] was 5.63% and the viability, T/C [15] was 5.48%. For the same molecule, the viability, T/C [16] was 4.47%, the viability, T/C [17] was 5.37% and the viability, T/C [18] was 0.42%. The viability, T/C [19] was 3.8%, the viability, T/C [20] was 3.22% and the viability, T/C [21] was 2.15%. The viability, T/C [22] was 3.98%, the viability, T/C [23] was 0.88% and the viability, T/C [24] was 0.97%. The viability, T/C [25] was 5.83%, the viability, T/C [26] was 2.98% and the viability, T/C [27] was 3.49%. For the same molecule, the viability, T/C [28] was 4.77%, the viability, T/C [29] was 1.3% and the viability, T/C [30] was 1.8%. The viability, T/C [31] was 3.7%, the viability, T/C [32] was 1.84% and the viability, T/C [33] was 3.88%. The viability, T/C [34] was 2.09%, the viability, T/C [35] was 1.69% and the viability, T/C [36] was 0.39%.

With `C=CC(=O)N1CCN(c2nc(=O)n(-c3c(C)ccnc3C(C)C)c3nc(-c4c(O)cccc4F)c(F)cc23)C(C)C1` (centres undefined) + CN1CCN(c2cc(C(=O)Nc3cc4cc(-c5cnn(C)c5)ccc4cn3)ccn2)CC1 the IC50 (second compound 0.0316 µM) was > 10000 nM, the IC50 (second compound 0.1 µM) was > 10000 nM and the IC50 (second compound 0.316 µM) was < 31.6 nM. The IC50 (second compound 1 µM) was < 31.6 nM, the IC50 (second compound 3.16 µM) was < 31.6 nM and the IC50 (second compound 10 µM) was < 31.6 nM. It also gave a viability, T/C [1] of 90.4%, a viability, T/C [2] of 97.5% and a viability, T/C [3] of 94.7%. The viability, T/C [4] was 104%, the viability, T/C [5] was 104% and the viability, T/C [6] was 85.5%. The viability, T/C [7] was 63.2%, the viability, T/C [8] was 68.1% and the viability, T/C [9] was 63.1%. For the same molecule, the viability, T/C [10] was 76.8%, the viability, T/C [11] was 66.4% and the viability, T/C [12] was 52.7%. It also gave a viability, T/C [13] of 6.84%, a viability, T/C [14] of 6.59% and a viability, T/C [15] of 5.21%. The viability, T/C [16] was 7.81%, the viability, T/C [17] was 5.13% and the viability, T/C [18] was 3.55%. For the same molecule, the viability, T/C [19] was 3.36%, the viability, T/C [20] was 2.83% and the viability, T/C [21] was 2.54%. The viability, T/C [22] was 3.57%, the viability, T/C [23] was 6.05% and the viability, T/C [24] was 3.88%. The viability, T/C [25] was 3.58%, the viability, T/C [26] was 3.65% and the viability, T/C [27] was 5.09%. It also gave a viability, T/C [28] of 5.88%, a viability, T/C [29] of 6.54% and a viability, T/C [30] of 6.07%. The viability, T/C [31] was 3.12%, the viability, T/C [32] was 2.35% and the viability, T/C [33] was 4.11%. The viability, T/C [34] was 3.93%, the viability, T/C [35] was 6.11% and the viability, T/C [36] was 3.94%.
